# T1: NgcE^Sco (SCO6005) (Streptomyces coelicolor, UniProt O50499)
# T1 construct: without putative signal peptide (29 N-terminal residues); from E. coli
# T1 sequence (O50499 30-469): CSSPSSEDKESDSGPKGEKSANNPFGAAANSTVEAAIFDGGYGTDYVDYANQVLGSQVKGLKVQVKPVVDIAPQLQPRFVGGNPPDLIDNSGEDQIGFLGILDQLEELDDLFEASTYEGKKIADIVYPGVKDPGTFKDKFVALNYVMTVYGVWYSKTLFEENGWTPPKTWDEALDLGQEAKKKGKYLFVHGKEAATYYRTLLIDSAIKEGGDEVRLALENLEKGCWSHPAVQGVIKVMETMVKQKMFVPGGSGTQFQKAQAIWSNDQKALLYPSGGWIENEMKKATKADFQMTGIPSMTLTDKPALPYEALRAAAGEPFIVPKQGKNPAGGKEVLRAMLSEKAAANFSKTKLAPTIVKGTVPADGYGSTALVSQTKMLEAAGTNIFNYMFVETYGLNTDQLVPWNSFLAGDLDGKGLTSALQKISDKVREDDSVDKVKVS
# T2: NgcE of S. olivaceoviridis (Streptomyces olivaceoviridis, UniProt Q8RJV0)
# T2 construct: N-terminally His-tagged, from E. coli carrying pQEH301
# T2 sequence (Q8RJV0 47-489): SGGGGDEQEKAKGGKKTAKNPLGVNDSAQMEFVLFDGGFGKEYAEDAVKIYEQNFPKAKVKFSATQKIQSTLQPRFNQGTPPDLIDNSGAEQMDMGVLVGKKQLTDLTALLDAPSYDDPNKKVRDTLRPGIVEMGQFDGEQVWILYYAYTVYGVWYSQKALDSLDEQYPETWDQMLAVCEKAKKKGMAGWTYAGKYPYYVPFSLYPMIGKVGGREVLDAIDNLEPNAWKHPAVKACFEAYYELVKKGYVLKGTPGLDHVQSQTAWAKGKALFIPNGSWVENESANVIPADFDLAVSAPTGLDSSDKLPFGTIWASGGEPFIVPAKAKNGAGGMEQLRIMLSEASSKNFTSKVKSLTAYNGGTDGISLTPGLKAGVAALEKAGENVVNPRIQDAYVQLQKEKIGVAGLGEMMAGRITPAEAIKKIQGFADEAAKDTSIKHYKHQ
# T3: DasR-6His (Streptomyces coelicolor A3(2), UniProt Q9K492 1-254)
# T3 sequence: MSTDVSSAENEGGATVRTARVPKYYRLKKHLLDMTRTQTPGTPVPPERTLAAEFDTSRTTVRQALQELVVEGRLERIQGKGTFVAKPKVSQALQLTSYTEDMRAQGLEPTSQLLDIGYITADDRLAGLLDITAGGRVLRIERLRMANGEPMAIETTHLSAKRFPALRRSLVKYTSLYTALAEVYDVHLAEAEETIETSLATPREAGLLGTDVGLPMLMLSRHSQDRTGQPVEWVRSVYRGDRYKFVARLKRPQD
# B1: dredasA (dsDNA)
# DNA 1: CAAGCTCCCCGTACTGGTCTACACCATTGGTCCAGGTCCC
# DNA 2: GGGACCTGGACCAATGGTGTAGACCAGTACGGGGAGCTTG
# B2: drenagKA (dsDNA)
# DNA 1: CGTACACCCGGGAGAGGTCTAGTCCACTGCGGTGGTGTAG
# DNA 2: CTACACCACCGCAGTGGACTAGACCTCTCCCGGGTGTACG
# B3: drengcE (dsDNA)
# DNA 1: CCGCCAAGCGAAAGTGGACTATACCTGTCGGCACTCCGGG
# DNA 2: CCCGGAGTGCCGACAGGTATAGTCCACTTTCGCTTGGCGG
# Legend:
# NgcE^Sco (SCO6005) [1] = biological target: T1, NgcE^Sco (SCO6005); assay: intrinsic protein fluorescence titration; format: binding
# DasR (DasR-6His) = biological target: T4, DasR (DasR-6His) (Streptomyces coelicolor, UniProt Q9K492); assay: EMSA, inhibition of DasR binding to dre^ngcE DNA; details: Cy5-labeled dre^ngcE DNA probe; allosteric
# T4 construct: DasR-6His from pFT240, expressed in E. coli BL21(DE3), Ni-agarose purified
# NgcE^Sco (SCO6005) [2] = biological target: T1, NgcE^Sco (SCO6005); assay: isothermal titration calorimetry; format: binding; details: 20 mM Tris/HCl pH 8.0, 30°C; single-site fit
# From the text: isothermal titration calorimetry on NgcE^Sco (SCO6005)
# [3] = biological target: T2, NgcE of S. olivaceoviridis; assay: intrinsic protein fluorescence titration; format: binding; details: fluorescence increase
# DasR-6His = biological target: T3, DasR-6His; assay: EMSA; EMSA: Cy5 probe ~0.1 mM and DasR-6His ~1 mM (so in the source); probably uM) in 50 uL, 1% agarose gel; buffer, salt, pH and temperature not given; details: protein: recombinant; tags: C-terminal 6xHis; chain copies: 2; label: Cy5 on the printed strand; blunt
molecule,measurement,setting,value
CC(=O)N[C@H]1C(O)O[C@H](CO)[C@@H](O)[C@@H]1O[C@H](C)C(=O)O (stereo partly shown) [MurNAc],Kd,NgcE^Sco (SCO6005) [1],25000 nM
N[C@H]1C(O)O[C@H](COP(=O)(O)O)[C@@H](O)[C@@H]1O (stereo partly shown) [GlcN-6P],"EMSA, inhibition of DasR binding to dre^ngcE DNA",DasR (DasR-6His),binding of DasR to the dre^ngcE-containing probe was inhibited by GlcNAc-6P and GlcN-6P
CC(=O)N[C@H]1[C@H](O[C@H]2[C@H](O)[C@@H](NC(C)=O)C(O)O[C@@H]2CO)O[C@H](CO)[C@@H](O)[C@@H]1O (stereo partly shown) [(GlcNAc)2],Kd,NgcE^Sco (SCO6005) [2],1530 nM
CC(=O)N[C@H]1C(O)O[C@H](COP(=O)(O)O)[C@@H](O)[C@@H]1O (stereo partly shown) [GlcNAc-6P],"EMSA, inhibition of DasR binding to dre^ngcE DNA",DasR (DasR-6His),binding of DasR to the dre^ngcE-containing probe was inhibited by GlcNAc-6P and GlcN-6P
CC(=O)N[C@H]1C(O)O[C@H](CO)[C@@H](O)[C@@H]1O (stereo partly shown) [GlcNAc],Kd,NgcE^Sco (SCO6005) [2],1150 nM
same,Kd,[3],85 nM
CC(=O)N[C@H]1C(O)O[C@H](CO)[C@H](O)[C@@H]1O (stereo partly shown) [GalNAc],Kd,NgcE^Sco (SCO6005) [1],12000 nM
B1,binding result,DasR-6His,binds
B2,binding result,DasR-6His,binds
B3,binding result,DasR-6His,binds
